# Measured values reported in ChEMBL document CHEMBL1129525 (J Med Chem, 1996).
# Assays:
# [1] = test system: Toxoplasma gondii; assay: Inhibition of Toxoplasma gondii cell growth; format: functional, organism-based
# [2] = target: T1, Dihydrofolate reductase (Pneumocystis carinii, UniProt P16184)
# T1 sequence (P16184 whole entry): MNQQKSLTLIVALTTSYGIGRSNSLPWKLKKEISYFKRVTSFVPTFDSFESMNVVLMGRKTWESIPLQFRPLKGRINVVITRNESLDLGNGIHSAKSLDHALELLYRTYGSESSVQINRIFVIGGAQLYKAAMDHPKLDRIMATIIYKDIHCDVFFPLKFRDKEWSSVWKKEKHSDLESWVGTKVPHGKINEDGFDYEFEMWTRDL
# Description: Inhibitory activity against Pneumocystis carinii dihydrofolate reductase
# [3] = target: T2, Dihydrofolate reductase (Rattus norvegicus, UniProt Q920D2)
# T2 sequence (Q920D2 whole entry): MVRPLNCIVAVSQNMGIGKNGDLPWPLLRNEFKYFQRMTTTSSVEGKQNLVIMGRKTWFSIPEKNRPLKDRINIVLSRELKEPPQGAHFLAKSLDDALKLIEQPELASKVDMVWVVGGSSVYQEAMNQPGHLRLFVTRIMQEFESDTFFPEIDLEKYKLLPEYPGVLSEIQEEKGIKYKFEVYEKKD
# Description: Inhibitory activity against rat liver dihydrofolate reductase
# [4] = target: T3, Bifunctional dihydrofolate reductase-thymidylate synthase (Toxoplasma gondii, UniProt Q07422)
# T3 sequence (Q07422 whole entry): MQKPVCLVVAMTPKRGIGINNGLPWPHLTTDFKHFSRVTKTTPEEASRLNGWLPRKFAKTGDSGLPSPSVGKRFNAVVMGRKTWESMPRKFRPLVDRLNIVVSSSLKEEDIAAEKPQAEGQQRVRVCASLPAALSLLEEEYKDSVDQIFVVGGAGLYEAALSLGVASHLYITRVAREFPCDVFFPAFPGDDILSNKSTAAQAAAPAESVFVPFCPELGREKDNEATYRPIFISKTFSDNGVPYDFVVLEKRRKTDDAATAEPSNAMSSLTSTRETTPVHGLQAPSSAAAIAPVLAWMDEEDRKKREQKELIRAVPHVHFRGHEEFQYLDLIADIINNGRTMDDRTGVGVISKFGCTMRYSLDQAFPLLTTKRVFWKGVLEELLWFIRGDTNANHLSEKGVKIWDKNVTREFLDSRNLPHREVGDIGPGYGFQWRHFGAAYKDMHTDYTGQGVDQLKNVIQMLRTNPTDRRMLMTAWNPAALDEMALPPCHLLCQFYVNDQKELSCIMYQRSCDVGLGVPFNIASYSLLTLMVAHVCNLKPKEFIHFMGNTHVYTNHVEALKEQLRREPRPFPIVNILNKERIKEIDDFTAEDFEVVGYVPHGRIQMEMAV
# Description: Inhibitory activity against Toxoplasma gondii dihydrofolate reductase
SMILES,IC50 [2],IC50 [3],IC50 [1],IC50 [4]
Nc1nc(N)c2nc(CSc3cccc4ccccc34)cnc2n1,4200 nM,8200 nM,3000 nM,7000 nM
COc1ccc(OC)c(N(C)Cc2cnc3nc(N)nc(N)c3n2)c1,3900 nM,470 nM,1600 nM,210 nM
COc1ccc(SCc2cnc3nc(N)nc(N)c3n2)cc1,17200 nM,10200 nM,3000 nM,14000 nM
COc1ccc(SCc2cnc3nc(N)nc(N)c3c2C)cc1OC,150 nM,180 nM,5000 nM,30 nM
COc1cc(NCc2cnc3nc(N)nc(N)c3c2)cc(OC)c1OC,–,810 nM,15000 nM,130 nM
COc1cccc(SCc2cnc3nc(N)nc(N)c3n2)c1,9900 nM,7700 nM,5000 nM,1600 nM
COc1ccc(OC)c(NCc2cnc3nc(N)nc(N)c3n2)c1,6200 nM,22900 nM,5000 nM,6900 nM
Cc1ccc(SCc2cnc3nc(N)nc(N)c3n2)cc1,–,26000 nM,5000 nM,15000 nM
COc1cc(NCc2cnc3nc(N)nc(N)c3n2)cc(OC)c1OC,7000 nM,1900 nM,11000 nM,1000 nM
COc1cc(NCc2cnc3nc(N)nc(N)c3n2)cc(C(F)(F)F)c1,680 nM,1900 nM,1000 nM,890 nM
COc1ccc(C(F)(F)F)cc1NCc1cnc2nc(N)nc(N)c2n1,21000 nM,21000 nM,2000 nM,10600 nM
COc1ccc(SCc2cnc3nc(N)nc(N)c3c2C)cc1,560 nM,–,300 nM,–
COc1cc(NCc2cnc3nc(N)nc(N)c3n2)cc(OC)c1,960 nM,880 nM,1000 nM,110 nM
Cc1ccc(SCc2cnc3nc(N)nc(N)c3c2C)cc1,530 nM,500 nM,300 nM,57 nM
Nc1nc(N)c2nc(CNc3cccc4ccccc34)cnc2n1,–,1260 nM,250 nM,76 nM
Nc1nc(N)c2nc(CCc3cccc4ccccc34)cnc2n1,–,60000 nM,1000 nM,820 nM
Nc1nc(N)c2nc(CSc3ccccc3)cnc2n1,9500 nM,–,10000 nM,–
COc1ccc(OC)c(N(C)Cc2cnc3nc(N)nc(N)c3c2C)c1,700 nM,460 nM,200 nM,28 nM
COc1ccc(OC)c(CCc2cnc3nc(N)nc(N)c3c2C)c1,340 nM,770 nM,100 nM,7.9 nM
Cc1cccc(SCc2cnc3nc(N)nc(N)c3n2)c1,21200 nM,8480 nM,4000 nM,1800 nM
COc1ccc(OC)c(CCc2cnc3nc(N)nc(N)c3n2)c1,11100 nM,23200 nM,5000 nM,5400 nM
Nc1nc(N)c2nc(CSc3cccc(Cl)c3)cnc2n1,42200 nM,26600 nM,> 10000 nM,5700 nM
COc1ccc(OC)c(Cc2cnc3nc(N)nc(N)c3c2C)c1 [PIRITREXIM],–,–,20 nM,–
CCc1nc(N)nc(N)c1-c1ccc(Cl)cc1 [PYRIMETHAMINE],–,–,400 nM,–

# Second part, led by results:
IC50 [2],IC50 [3],SMILES,IC50 [1],IC50 [4]
50 nM,13 nM,COc1cc(OC)cc(N(C)Cc2cnc3nc(N)nc(N)c3c2C)c1,10 nM,4 nM
1500 nM,300 nM,Nc1nc(N)c2nc(CNc3ccc(Cl)cc3)cnc2n1,700 nM,590 nM
360 nM,370 nM,Cc1c(CSc2ccc(Cl)cc2)cnc2nc(N)nc(N)c12,300 nM,90 nM
260 nM,230 nM,Nc1nc(N)c2cc(CNc3cccc4ccccc34)cnc2n1,800 nM,150 nM
11 nM,10 nM,COc1ccc(OC)c(NCc2cnc3nc(N)nc(N)c3c2C)c1,200 nM,14 nM
93 nM,230 nM,COc1ccc(C(F)(F)F)cc1N(C)Cc1cnc2nc(N)nc(N)c2c1C,200 nM,38 nM
600 nM,73 nM,Nc1nc(N)c2cc(CNc3ccc(Cl)cc3)ccc2n1,10 nM,75 nM
210 nM,55 nM,Nc1nc(N)c2cc(CNc3cccc4ccccc34)ccc2n1,60 nM,27 nM
150 nM,140 nM,Cc1c(CN(C)c2cccc3c2CCCC3)cnc2nc(N)nc(N)c12,20 nM,16 nM
330 nM,23 nM,Cc1cc(Cl)ccc1NCc1ccc2nc(N)nc(N)c2c1,200 nM,33 nM
170 nM,330 nM,Cc1cccc(SCc2cnc3nc(N)nc(N)c3c2C)c1,200 nM,65 nM
64 nM,135 nM,Cc1c(CCc2cccc3ccccc23)cnc2nc(N)nc(N)c12,100 nM,26 nM
170 nM,29 nM,COc1ccc(NCc2cnc3nc(N)nc(N)c3c2C)c(C)c1,600 nM,7.2 nM
110 nM,72 nM,Cc1c(CNc2ccc(Cl)cc2)cnc2nc(N)nc(N)c12,150 nM,32 nM
750 nM,460 nM,COc1ccc(OC)c(NCc2ccc3nc(N)nc(N)c3c2)c1,600 nM,140 nM
–,5.4 nM,COc1cc(NCc2cnc3nc(N)nc(N)c3c2C)cc(OC)c1OC,1000 nM,–
350 nM,230 nM,COc1ccc(N(C)Cc2cnc3nc(N)nc(N)c3c2C)c(OC)c1,300 nM,53 nM
220 nM,110 nM,Cc1c(CNc2cccc3ccccc23)cnc2nc(N)nc(N)c12,12 nM,240 nM
20 nM,17 nM,COc1cc(NCc2cnc3nc(N)nc(N)c3c2C)cc(C(F)(F)F)c1,200 nM,18 nM
68 nM,190 nM,Cc1c(CSc2cccc(Cl)c2)cnc2nc(N)nc(N)c12,150 nM,90 nM
29 nM,5.2 nM,COc1ccc(N(C)Cc2cnc3nc(N)nc(N)c3c2C)cc1OC,150 nM,2.9 nM
91 nM,61 nM,COc1ccc(NCc2cnc3nc(N)nc(N)c3c2C)c(OC)c1,200 nM,10 nM
1000 nM,320 nM,COc1cccc(C)c1NCc1cnc2nc(N)nc(N)c2c1C,300 nM,100 nM
44 nM,20 nM,COc1ccc(C(F)(F)F)cc1NCc1cnc2nc(N)nc(N)c2c1C,20 nM,22 nM
100 nM,130 nM,Cc1c(CNc2cccc3c2CCCC3)cnc2nc(N)nc(N)c12,60 nM,26 nM
440 nM,430 nM,Cc1c(CSc2ccccc2)cnc2nc(N)nc(N)c12,200 nM,34 nM
